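Compound exposure: 48 hours, 5 concentrations, 96-well plates. GI50 is the concentration that inhibits growth by half. Definition used: TGI = concentration required for complete inhibition of growth.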
How the values were obtained:
Experiment in all cases: DTP human tumour cell line panel, 48 h
[1] = system: HCT-116 colon
[2] = system: MALME-3M melanoma
[3] = system: NCI-H460 lung
[4] = system: RXF 393 renal
[5] = system: SK-MEL-5 melanoma
[6] = system: SN12C renal
[7] = system: SNB-19 CNS
[8] = system: SR leukemia
[9] = system: HS 578T breast
[10] = system: RPMI-8226 leukemia

Compound | TGI [1] [µM] | TGI [2] [µM] | TGI [3] [µM] | TGI [4] [µM] | TGI [5] [µM] | TGI [6] [µM] | TGI [7] [µM] | TGI [8] [µM] | GI50 [1] [µM] | GI50 [9] [µM] | GI50 [3] [µM] | GI50 [10] [µM] | TGI [10] [µM] | GI50 [5] [µM] | GI50 [6] [µM] | GI50 [7] [µM] | GI50 [8] [µM] | TGI [9] [µM] | GI50 [2] [µM] | GI50 [4] [µM]
COc1ccc2nc3cc(Cl)ccc3c(Sc3ccc(N)cc3)c2c1 | 17.3 | 30.1 | 21.1 | 24.7 | 25.3 | 24 | 33.4 | 11.4 | – | – | – | – | – | – | – | – | – | – | – | –
COc1ccc(Cn2cc3c(c2-c2ccccc2)CCc2cnoc2-3)cc1 | – | – | 2.12 | – | 0.504 | > 100 | > 100 | 3.16 | 0.0904 | 0.183 | 0.25 | 0.167 | 0.501 | 0.0479 | 0.545 | 0.351 | 0.0574 | – | – | –
O=C(n1c2ccccc2c2n[nH]c(=S)nc21)C(F)(F)F | > 100 | > 100 | > 100 | > 100 | > 100 | > 100 | > 100 | – | – | – | – | – | – | – | – | – | – | – | – | –
CCCCC[C@@H]1CCCC2NC(CCCCCO[Si](c3ccccc3)(c3ccccc3)C(C)(C)C)CCC21 (stereo partly drawn) | 23.7 | 36.9 | 31.7 | 25.4 | 35.3 | 28.4 | 32.7 | – | – | – | – | – | 22.2 | – | – | – | – | – | – | –
O=C1c2ccccc2C(=O)N1c1ccc(Cc2ccc(N3C(=O)c4ccccc4C3=O)cc2)cc1 | > 100 | > 100 | > 100 | > 100 | > 100 | > 100 | > 100 | – | – | – | – | – | > 100 | – | – | – | – | > 100 | – | –
CCN(Cc1ccc(Cl)c(Cl)c1)c1ccc2nc(N)nc(N)c2c1C | 1.51 | 2.6 | 1.47 | – | 1.45 | – | 1.51 | – | < 0.01 | – | < 0.01 | 0.0968 | 2.83 | < 0.01 | – | 0.0141 | – | – | 1.17 | –
Cn1c(=O)nc2n(-c3ccc(Br)cc3)c3ccccc3nc-2c1=O | 16.3 | 12.7 | 11.9 | 29 | 4.12 | 17.9 | 9.3 | – | – | – | – | – | 28.8 | – | – | – | – | – | – | –
CC(C)(C)c1cc(C2c3cc4c(cc3OC(O)(CO)C2C(=O)O)OCO4)cc(C(C)(C)C)c1O (stereo not drawn) (tested in a mixture with another compound) | 21.2 | 37.3 | 33.3 | 29.4 | 23.9 | 31 | 25.7 | – | – | – | – | – | 22.7 | – | – | – | – | – | – | –
N#CN1CC[C@@H]2CC3(CCC2C1)OCCO3 (stereo partly drawn) | > 100 | > 100 | > 100 | > 100 | > 100 | > 100 | > 100 | > 100 | – | – | – | – | > 100 | – | – | – | – | – | – | –
COC(=O)NC1(NC(=O)OC)NC(=O)c2ccccc2N1 | > 100 | > 100 | > 100 | – | > 100 | > 100 | > 100 | > 100 | – | – | – | – | – | – | – | – | – | > 100 | – | –
O=C(c1ccc(Cl)cc1Cl)N1CCN(C(=O)c2ccc(Cl)cc2Cl)C1=S | 57.5 | 62.7 | > 100 | 43 | – | 34.4 | 65.2 | – | 23.5 | 41 | 35.4 | – | 30.7 | – | 18.1 | 24.9 | – | > 100 | 25.4 | 18.5
CC(C)(C)OC(=O)NCCCCCCCCCn1c2c(c3ccccc3c1=O)C(=O)c1ccccc1-2 | – | 43 | > 100 | > 100 | > 100 | > 100 | > 100 | – | – | 14.2 | > 100 | > 100 | > 100 | > 100 | 76.8 | 28.2 | – | 43.6 | 13.9 | 20.5
COc1cc(C[C@H]2COC(=O)[C@]2(O)Cc2ccc(OCc3ccccc3)c(OC)c2)ccc1OCc1ccccc1 | > 100 | 87.3 | > 100 | > 100 | 37.1 | > 100 | > 100 | – | 16.8 | 42.9 | 9.77 | 71.9 | > 100 | 13.7 | 12.5 | > 100 | – | > 100 | 8.33 | 40.3
COc1ccc(C2=Nn3c(nnc3-c3ccc(F)c(Cl)c3)SC2)cc1 | > 100 | > 100 | > 100 | > 100 | > 100 | > 100 | > 100 | – | 61.6 | > 100 | > 100 | > 100 | > 100 | > 100 | 5.53 | > 100 | – | > 100 | > 100 | > 100
O=C(c1ccccc1)c1nc2c(Cl)ccc(Cl)c2cc1C(Br)Br | 1.56 | 5.66 | – | 4.05 | 2.7 | – | 3.11 | 13.1 | – | – | – | – | 2.2 | – | – | – | – | – | – | –
CC(C)(C)C1=CC(=N/N=c2\scc(-c3ccccc3)n2Cc2ccccc2)C=C(C(C)(C)C)C1=O | > 100 | > 100 | > 100 | > 100 | > 100 | > 100 | > 100 | > 100 | – | – | – | – | – | – | – | – | – | – | – | –
O=C(NCCCN1CCN(CCCNC(=O)c2cccc3ccccc23)CC1)c1cccc2ccccc12 | > 100 | > 100 | > 100 | – | > 100 | > 100 | > 100 | – | – | – | – | – | > 100 | – | – | – | – | – | – | –
CNC(=O)[C@H](Cc1c[nH]c2ccccc12)NC(=O)[C@@H](CC(=O)NO)CC(C)C | > 25 | > 25 | > 25 | – | > 25 | > 25 | > 25 | – | > 25 | > 25 | > 25 | – | – | > 25 | > 25 | > 25 | – | > 25 | > 25 | –
O=c1[nH]c2nc3ccccc3c(=O)n2nc1Cc1ccccc1 | > 100 | > 100 | > 100 | – | > 100 | > 100 | > 100 | > 100 | – | – | – | – | > 100 | – | – | – | – | – | – | –
COc1ccc(-c2cn(C)c3c2-n2cccc2C3=O)cc1O | 26.5 | 9.28 | 20 | 99.4 | 5.93 | 41.2 | – | – | 11.1 | 0.611 | 3.06 | 2.05 | 17.5 | 1.4 | 10.8 | – | – | 3.9 | 1.77 | 42.3

Reference: PubChem BioAssay (NCI)
